The text below walks through data of ChEMBL document CHEMBL3244391, “Antiviral activity of aliphatic nucleoside analogues: structure-function relationship” (1979).

SMILES strings stand for the structures.

The assay concerns Vesicular stomatitis virus. The assay can be described thus: Antiviral activity against Vesicular stomatitis virus infected in rabbit primary kidney cells assessed as inhibition of viral cytopathogenicity after 2 days. The format is functional.
As to `Nc1ccn([C@@H]2O[C@H](CO)[C@@H](O)[C@@H]2O)c(=O)n1` [CYTARABINE], the MID stood at 10 µg/mL.

In the case of `Nc1ncnc2c1ncn2C[C@@H](O)CO`, the MID is 300 µg/mL.

On to `Nc1ncnc2c1ncn2C[C@H](O)CO` [(S)-DHPA], for which the MID came to 7 µg/mL.

For `CNc1ncnc2c1ncn2CC(O)CO` (racemic), the MID is over 400 µg/mL.

As to `Cc1cn(C[C@@H](O)CO)c(=O)[nH]c1=O`, the MID was over 400 µg/mL.

On to `Nc1ncnc2c1ncn2CCC(O)CO` (racemic), for which the MID amounted to 200 µg/mL.

Regarding `Nc1ccn(CC(O)CO)c(=O)n1` (racemic), the MID came out at 400 µg/mL.

On to `Nc1c2ncn(CC(O)CO)c2nc[n+]1[O-]` (racemic), for which the MID was over 400 µg/mL.

For the compound `O=c1cnn(CC(O)CO)c(=O)[nH]1` (racemic), the MID was over 400 µg/mL.

For `Cc1cn(C[C@H](O)CO)c(=O)[nH]c1=O`, the MID is over 400 µg/mL.

In the case of `Nc1nc(O)c2c(ncn2CC(O)CO)n1` (racemic), the MID was over 400 µg/mL.

In the case of `Cc1c[nH]c(=O)n(C[C@H](O)CO)c1=O`, the MID was over 400 µg/mL.

Take `CC(C)(C)C(=O)OCC(O)Cn1cnc2c(N)ncnc21` (racemic): the MID was over 400 µg/mL.

Consider `O=c1ccn(CC(O)C(O)CO)c(=O)[nH]1` (racemic), for which the MID was over 400 µg/mL.

Regarding `OC[C@@H](O)Cn1cnc2c(O)ncnc21`, the MID was over 400 µg/mL.

`[N-]=[N+]=NCC(Cn1cnc2c(N)ncnc21)N=[N+]=[N-]` (racemic): the MID was 400 µg/mL.

For `NCCn1cnc2c(N)ncnc21`, the MID was over 400 µg/mL.

On to `O=c1ccn(CCC(O)CCO)c(=O)[nH]1` (racemic), for which the MID was over 400 µg/mL.

With `Nc1nc2c(ncn2CC(O)CO)c(=O)[nH]1` (racemic), the MID was over 400 µg/mL.

With `CCC(=O)OCC(Cn1cnc2c(N)ncnc21)OC(=O)CC` (racemic), the MID came out at 300 µg/mL.

For the compound `CC(=O)OC[C@H](Cn1cnc2c(N)ncnc21)OC(C)=O`, the MID amounted to 300 µg/mL.

Turning to `CCCCCCCCCCCCCCCC(=O)OCC(O)Cn1cnc2c(N)ncnc21` (racemic), the MID was over 400 µg/mL.

With `Nc1ncnc2c1ncn2CC(O)C(O)CO` (racemic), the MID amounted to 200 µg/mL.

On to `COCC(O)Cn1cnc2c(N)ncnc21` (racemic), for which the MID is over 400 µg/mL.

Consider `Nc1ncnc2c1ncn2C[C@H](O)[C@H](O)CO`, for which the MID amounted to 100 µg/mL.

`Nc1ncnc2c1ncn2CC(N)CO` (racemic): the MID came to 100 µg/mL.

`Nc1ncnc2c1ncn2C[C@@H](O)[C@H](O)CO`: the MID worked out at 300 µg/mL.

As for `OCC(O)Cn1cnc2c(S)ncnc21` (racemic), the MID is over 400 µg/mL.

As to `Nc1ncnc2c1nc(S)n2CC(O)CO` (racemic), the MID is over 400 µg/mL.

`O=c1ccn(C[C@@H](O)[C@H](O)CO)c(=O)[nH]1`: the MID came out at 400 µg/mL.

For the compound `O=c1ccn(CC[C@H](O)CO)c(=O)[nH]1`, the MID is over 400 µg/mL.

With `COC(CO)Cn1cnc2c(N)ncnc21` (racemic), the MID stood at 300 µg/mL.

As for `Nc1ncnc2c1ncn2CCCO`, the MID is 200 µg/mL.

For the compound `[N-]=[N+]=NCC(O)Cn1cnc2c(N)ncnc21` (racemic), the MID is 200 µg/mL.

As to `Nc1ncnc2c1ncn2C[C@H](O)[C@@H](O)CO`, the MID was over 400 µg/mL.

Turning to `Nc1ncnc2c1ncn2C(CO)CO`, the MID turned out to be 300 µg/mL.

Consider `Nc1ncnc2c1ncn2CC(O)CO` (racemic), for which the MID turned out to be 20 µg/mL.

Turning to `CC(C)(C)C(=O)OCC(Cn1cnc2c(N)ncnc21)OC(=O)C(C)(C)C` (racemic), the MID was over 400 µg/mL.

As for `Nc1ncnc2c1ncn2[C@@H]1O[C@H](CO)[C@@H](O)[C@@H]1O` [VIDARABINE], the MID amounted to 20 µg/mL.

Take `CN(C)c1ncnc2c1ncn2CC(O)CO` (racemic): the MID was over 400 µg/mL.

Regarding `Nc1nc(N)c2ncn(CC(O)CO)c2n1` (racemic), the MID is over 400 µg/mL.

Take `NCC(N)Cn1cnc2c(N)ncnc21` (racemic): the MID is over 400 µg/mL.

Take `Nc1ncnc2c1nc(O)n2CC(O)CO` (racemic): the MID is over 400 µg/mL.

Turning to `Nc1ncnc2c1ncn2CCC(O)CCO` (racemic), the MID was over 400 µg/mL.

For the compound `Nc1ncnc2c1ncn2CC[C@H](O)CO`, the MID was 100 µg/mL.

With `CSc1nc(N)c2ncn(CC(O)CO)c2n1` (racemic), the MID is over 400 µg/mL.

As for `O=c1ccn(C[C@H](O)CO)c(=O)[nH]1`, the MID came to 400 µg/mL.

As for `Nc1ncnc2c1nc(Br)n2CC(O)CO` (racemic), the MID is over 200 µg/mL.

`Nc1ncnc2c1ncn2C[C@@H](O)[C@@H](O)CO`: the MID worked out at 300 µg/mL.

Turning to `O=c1ccn(C[C@H](O)[C@H](O)CO)c(=O)[nH]1` (racemic), the MID is over 400 µg/mL.

With `CC(O)Cn1cnc2c(N)ncnc21` (racemic), the MID was over 400 µg/mL.

Take `COCC(Cn1cnc2c(N)ncnc21)OC` (racemic): the MID was determined as 300 µg/mL.

For the compound `C[C@@H](O)[C@@H](O)Cn1cnc2c(N)ncnc21` (racemic), the MID was 100 µg/mL.

Regarding `Nc1ncnc2c1ncn2CCO`, the MID is over 400 µg/mL.

Regarding `O=c1[nH]c(=O)n([C@H]2C[C@H](O)[C@@H](CO)O2)cc1I` [IDOXURIDINE], the MID was over 400 µg/mL.

Regarding `NCC(O)Cn1cnc2c(N)ncnc21` (racemic), the MID is 200 µg/mL.
